{"source": "patent EP4660195A1", "about": "“CRYSTALLINE FORMS OF AVATROMBOPAG MALEATE AND PREPARATION THEREOF” (NOUCOR HEALTH S.A., priority 2024, dated 2025)", "key": {"[1]": {"conditions": "pH 1 to 11; cited from earlier work"}, "[2]": {"conditions": "in vivo; cited from earlier work"}, "[3]": {"test": "Stability of screened solid forms with time", "type": "physicochemical", "method": "Form C9 was only exclusively obtained using chloroform as a solvent, which solvent is not suitable for industrial manufacturing of a drug according to regulatory requirements. These solid forms are consequently not suitable for industrial manufacturing of a drug.\nAmorphous Avatrombopag maleate (200 mg) was suspended in methanol (10 mL) at room temperature, and stirred for 15 hours, filtered and dried in the air. […] After 24 hours, the solid was analyzed by PXRD again - only form beta was observed. ^1H NMR analysis of said solid form indicated the presence of methanol in the crystalline form. In order to remove the methanol to obtain an anhydrous form, form beta was dried in vacuum for 2 hours at 70°C. After said desolvation step, crystalline forma alpha was obtained."}, "[4]": {"test": "Hygroscopicity by Dynamic Vapor Sorption analysis", "type": "physicochemical", "conditions": "for gain of weight by absorption of water: 25°C", "method": "Dynamic Vapor Sorption Analysis (DVS) were performed in a Mettler Toledo TGA / DSC 1 LF instrument equipped with a LF SDTA FRS2 sensor and coupled with a Modular Humidity Generator MHG 32. Data collection and evaluation was done with STARe software. Measurement conditions: The samples were analysed following a humidity cycle from 20%RH up to 80%RH, down to 3%RH, up to 90 and down to 3%RH in 10% steps of 30 minutes at 25°C. Sample preparation: Approximately 5-10 mg of sample were weighed (using a MX5 Mettler Toledo microbalance) into 150 µL platinum crucibles without lid."}, "[5]": {"test": "Solid form stability in climatic chamber at 40°C and 75% RH, monitored by PXRD", "type": "physicochemical", "conditions": "40°C and 75% RH, 1, 5 and 13 days", "description": "(§1) The Powder X-Ray diffraction (PXRD) patterns were acquired on a Bruker D8 Advance Series 2Theta/Theta powder diffraction system using CuKα1-radiation operated at 40 kV and 40 mA in transmission geometry. The system is equipped with a VÅNTEC-1 single photon counting PSD, a Germanium monochromator, a ninety positions auto changer sample stage, fixed divergence slits and a radial soller. Programs used: Data collection with DIFFRAC plus XRD Commander V.2.5.1, and evaluation with High Score Plus 4.9 (Malvern PANalytical B.V.). Measurement conditions: The samples were measured in a range from 4 to 40° in 2θ in a 6 or 30 minutes measurement using an angular step of 0.05° and a time per step of […]. Sample preparation: 20 mg of non-manipulated sample were prepared in standard sample holders using two foils of polyacetate\nA sample of Crystalline Form Alpha of Avatrombopag maleate was stored for 13 days in a climatic chamber at 40°C and 75% RH, and the solid form was monitored by PXRD."}, "[6]": {"test": "Thermal stability at 90 °C for 24 hours, PXRD and 1H NMR", "type": "physicochemical", "conditions": "open or closed vial", "description": "as §1\nProton nuclear magnetic resonance analyses (^1H NMR spectroscopy) were recorded in a Bruker 300 NMR spectrometer, equipped with a z gradient 5 mm BBO (Broadband Observe) probe with ATM and an automatic autosampler. Measurement conditions: The samples were analysed at room temperature. Sample preparation: Approximately 2-5 mg of sample were dissolved in 0.7 mL of deuterated solvent (dimethylsulfoxide-d6)."}}, "note": "Structures can show the parent of a compound that is named as a salt.", "data": [{"smiles": "O=C(Nc1nc(-c2cc(Cl)cs2)c(N2CCN(C3CCCCC3)CC2)s1)c1cnc(N2CCC(C(=O)O)CC2)c(Cl)c1.O=C(O)/C=C\\C(=O)O", "note": "[Avatrombopag maleate]", "values": [{"measurement": "aqueous solubility", "setting": "[1]", "result": "practically insoluble"}]}, {"smiles": "O=C(Nc1nc(-c2cc(Cl)cs2)c(N2CCN(C3CCCCC3)CC2)s1)c1cnc(N2CCC(C(=O)O)CC2)c(Cl)c1.O=C(O)/C=C\\C(=O)O", "note": "[Form A, Avatrombopag maleate]", "values": [{"measurement": "oral absorption", "setting": "[2]", "result": "excellent oral absorption"}]}, {"smiles": "O=C(Nc1nc(-c2cc(Cl)cs2)c(N2CCN(C3CCCCC3)CC2)s1)c1cnc(N2CCC(C(=O)O)CC2)c(Cl)c1", "note": "[Form B, Avatrombopag maleate]", "values": [{"measurement": "oral absorption", "setting": "[2]", "result": "inferior oral absorption"}]}, {"smiles": "O=C(Nc1nc(-c2cc(Cl)cs2)c(N2CCN(C3CCCCC3)CC2)s1)c1cnc(N2CCC(C(=O)O)CC2)c(Cl)c1.O=C(O)/C=C\\C(=O)O", "note": "[Form C5, Avatrombopag maleate]", "values": [{"measurement": "stability of the solid form with time", "setting": "[3]; listed as C5", "result": "lose crystallinity with time"}]}, {"smiles": "O=C(Nc1nc(-c2cc(Cl)cs2)c(N2CCN(C3CCCCC3)CC2)s1)c1cnc(N2CCC(C(=O)O)CC2)c(Cl)c1.O=C(O)/C=C\\C(=O)O", "note": "[Form C11, Avatrombopag maleate]", "values": [{"measurement": "stability of the solid form with time", "setting": "[3]; listed as C11", "result": "unstable"}]}, {"smiles": "O=C(Nc1nc(-c2cc(Cl)cs2)c(N2CCN(C3CCCCC3)CC2)s1)c1cnc(N2CCC(C(=O)O)CC2)c(Cl)c1.O=C(O)/C=C\\C(=O)O", "note": "[Form C22, Avatrombopag maleate]", "values": [{"measurement": "stability of the solid form with time", "setting": "[3]; listed as C22", "result": "lose crystallinity with time"}]}, {"smiles": "O=C(Nc1nc(-c2cc(Cl)cs2)c(N2CCN(C3CCCCC3)CC2)s1)c1cnc(N2CCC(C(=O)O)CC2)c(Cl)c1", "note": "[Form C, Avatrombopag maleate]", "values": [{"measurement": "oral absorption", "setting": "[2]", "result": "excellent oral absorption"}]}, {"smiles": "O=C(Nc1nc(-c2cc(Cl)cs2)c(N2CCN(C3CCCCC3)CC2)s1)c1cnc(N2CCC(C(=O)O)CC2)c(Cl)c1", "note": "[Form alpha, Avatrombopag maleate]", "values": [{"measurement": "solid form (PXRD) before and after DVS analysis", "setting": "[4]; exposure to relative humidity as high as 90%", "result": "preserves its solid form"}, {"measurement": "gain of weight by absorption of water", "setting": "[4]; relative humidity of 70%", "result": "below 0.3%"}, {"measurement": "gain of weight by absorption of water", "setting": "[4]; relative humidity of 80%", "result": "below 0.4%"}, {"measurement": "gain of weight by absorption of water", "setting": "[4]; relative humidity of 90%", "result": "below 0.7%"}, {"measurement": "solid form (PXRD) after storage", "setting": "[5]", "result": "preserves its solid form"}, {"measurement": "solid form (PXRD, 1H NMR) after heating", "setting": "[6]", "result": "preserves its solid form"}]}, {"smiles": "O=C(Nc1nc(-c2cc(Cl)cs2)c(N2CCN(C3CCCCC3)CC2)s1)c1cnc(N2CCC(C(=O)O)CC2)c(Cl)c1.O=C(O)/C=C\\C(=O)O", "note": "[Form gamma, Avatrombopag maleate]", "values": [{"measurement": "stability of the solid form with time", "setting": "[3]; listed as form gamma", "result": "spontaneously converted into form beta with time"}]}]}
